Data reported in ChEMBL document CHEMBL1201862, “PubChem BioAssay data set” (2004).
Where “and” joins values, the source holds several entries; their conditions need not be identical. Equal values may be shown once.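 Dose response: 5 concentrations. Exposure: 48 h. Format: 96-well plates. Endpoint: linear interpolation; highest concentration if not reached. GI50 marks 50% less growth.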 Calls of active or inactive are those of the source. No stated cut-off is given here; in the data, active = GI50 up to about 1.1 µM and inactive = higher.

What was measured:
Assay in all cases: NCI-60 cell line screen, 48 h
[1] = system: 786-0
[2] = system: A498
[3] = system: ACHN
[4] = system: CAKI-1
[5] = system: CCRF-CEM
[6] = system: DU-145
[7] = system: EKVX
[8] = system: HCC 2998
[9] = system: HCT-15
[10] = system: HOP-62
[11] = system: Hs-578T
[12] = system: LOX IMVI
[13] = system: MCF7
[14] = system: MDA-MB-231
[15] = system: MOLT-4
[16] = system: NCI-H23
[17] = system: NCI/ADR-RES
[18] = system: OVCAR-4
[19] = system: OVCAR-8
[20] = system: PC-3
[21] = system: RXF 393
[22] = system: SF-268
[23] = system: SF-539
[24] = system: SK-MEL-5
[25] = system: SNB-19
[26] = system: SNB-75
[27] = system: TK-10
[28] = system: UACC-62
[29] = system: SF-295
[30] = system: UACC-257
[31] = system: A549
[32] = system: BT-549
[33] = system: COLO 205
[34] = system: HCT-116
[35] = system: HOP-92
[36] = system: HT-29
[37] = system: IGROV-1
[38] = system: K562
[39] = system: KM12
[40] = system: M14
[41] = system: MDA-MB-435
[42] = system: MDA-N
[43] = system: NCI-H522
[44] = system: OVCAR-3
[45] = system: OVCAR-5
[46] = system: RPMI-8226
[47] = system: SK-MEL-28
[48] = system: SK-MEL-2
[49] = system: SK-OV-3
[50] = system: SN12C
[51] = system: SW-620
[52] = system: U-251
[53] = system: UO-31
[54] = system: Malme-3M
[55] = system: NCI-H226
[56] = system: NCI-H460
[57] = system: SR
[58] = system: HL-60

Measured: GI50

CC1OC(OC2C(OC(=O)[C@]34CCC(C)(C)C[C@H]3C3=CC[C@@H]5[C@@]6(C)CC[C@H](OC7OC(C(=O)O)C(O)C(OC8OCC(O)C(O)C8O)C7O)C(C)(C)[C@@H]6CC[C@@]5(C)[C@]3(C)CC4)OCC(O)C2O)C(O)C(OC2OCC(O)C(O)C2O)C1OC1OCC(O)C(OC2OCC(O)C(O)C2O)C1O (stereo partly drawn)
inactive: [1] 12.1 µM and 21.7 µM | [2] 2.66 µM and 2.28 µM | [3] 7.28 µM and 12.3 µM | [4] 5.93 µM and 10.7 µM | [5] 14.6 µM and 13.2 µM | [6] 15 µM and 28.2 µM | [7] 17.4 µM and 9.31 µM | [8] 2 µM and 3.89 µM | [10] 14.9 µM and 16.9 µM | [11] 26.6 µM and 18.4 µM | [12] 10.8 µM and 13.4 µM | [13] 7.93 µM and 5.35 µM | [14] 3.3 µM and 3.16 µM | [15] 9.91 µM and 17.9 µM | [16] 7.06 µM and 13.9 µM | [17] 7.55 µM and 14.4 µM | [18] 7.96 µM and 14.3 µM | [19] 13.2 µM and 17.5 µM | [20] 9.68 µM and 11.1 µM | [21] 15 µM and 18.2 µM | [22] 16.7 µM and 8.51 µM | [23] 20.5 µM | [24] 14.5 µM and 18.4 µM | [25] 9.86 µM and 14.2 µM | [26] 12.2 µM and 14.1 µM | [27] 11.2 µM | [28] 16.4 µM and 28.8 µM
18.6 µM and 15.3 µM: [9]

CN(C)CC1CCCCCCCCCCC1=O (stereo not drawn)
inactive: [8] > 10 µM | [14] > 10 µM | [19] > 10 µM | [21] > 10 µM | [29] > 10 µM | [30] > 10 µM

CCOC(=O)N/N=C(/N)Cc1ccc(Cl)cc1
inactive: [1] > 100 µM | [31] > 100 µM | [3] > 100 µM | [32] > 100 µM | [5] > 100 µM | [33] > 100 µM | [6] > 100 µM | [7] > 100 µM | [8] > 100 µM | [34] > 100 µM | [10] > 100 µM | [35] > 100 µM | [36] > 100 µM | [37] > 100 µM | [38] > 100 µM | [39] > 100 µM | [12] > 100 µM | [40] > 100 µM | [13] > 100 µM | [14] > 100 µM | [41] > 100 µM | [42] > 100 µM | [15] > 100 µM | [16] > 100 µM | [43] > 100 µM | [17] > 100 µM | [44] > 100 µM | [18] > 100 µM | [45] > 100 µM | [19] > 100 µM | [20] > 100 µM | [46] > 100 µM | [21] > 100 µM | [22] > 100 µM | [29] > 100 µM | [23] > 100 µM | [47] > 100 µM | [48] > 100 µM | [24] > 100 µM | [49] > 100 µM | [50] > 100 µM | [25] > 100 µM | [26] > 100 µM | [51] > 100 µM | [27] > 100 µM | [52] > 100 µM | [30] > 100 µM | [28] > 100 µM | [53] > 100 µM
> 100 µM: [9]

O=C(O)CC(NC(=O)C(F)(F)F)C(=O)NC1Cc2ccccc2OC1=O (stereo not drawn)
> 100 µM: [9]
inactive: [1] > 100 µM | [31] > 100 µM | [3] > 100 µM | [32] > 100 µM | [4] > 100 µM | [6] > 100 µM | [7] > 100 µM | [8] > 100 µM | [10] > 100 µM | [36] > 100 µM | [11] > 100 µM | [37] > 100 µM | [38] > 100 µM | [39] > 100 µM | [40] > 100 µM | [13] > 100 µM | [41] > 100 µM | [42] > 100 µM | [15] > 100 µM | [54] > 100 µM | [55] > 100 µM | [16] > 100 µM | [56] > 100 µM | [43] > 100 µM | [17] > 100 µM | [44] > 100 µM | [45] > 100 µM | [19] > 100 µM | [20] > 100 µM | [46] > 100 µM | [21] > 100 µM | [22] > 100 µM | [29] > 100 µM | [23] > 100 µM | [47] > 100 µM | [48] > 100 µM | [24] > 100 µM | [49] > 100 µM | [50] > 100 µM | [25] > 100 µM | [26] > 100 µM | [57] > 100 µM | [51] > 100 µM | [27] > 100 µM | [52] > 100 µM | [30] > 100 µM | [28] > 100 µM | [53] > 100 µM

O=C1C=C2CC[C@H]3[C@@H]4CC[C@H](OC(=O)c5cccc6cc7ccccc7nc56)[C@H]4CC[C@@H]3[C@H]2CC1
> 100 µM: [9]
inactive: [1] > 100 µM | [2] > 100 µM | [31] > 100 µM | [3] > 100 µM | [32] > 100 µM | [5] 24.7 µM | [33] > 100 µM | [6] > 100 µM | [7] 63.1 µM | [34] > 100 µM | [58] > 100 µM | [10] > 100 µM | [36] > 100 µM | [11] > 100 µM | [37] > 100 µM | [38] 40.1 µM | [39] > 100 µM | [12] 15.9 µM | [40] > 100 µM | [13] > 100 µM | [14] 50.1 µM | [41] > 100 µM | [42] > 100 µM | [15] 54.3 µM | [54] > 100 µM | [55] > 100 µM | [16] > 100 µM | [43] 25.5 µM | [17] > 100 µM | [44] 39.5 µM | [18] > 100 µM | [45] > 100 µM | [19] > 100 µM | [20] > 100 µM | [46] 93.3 µM | [22] > 100 µM | [29] > 100 µM | [23] > 100 µM | [47] > 100 µM | [48] > 100 µM | [24] > 100 µM | [49] > 100 µM | [50] > 100 µM | [25] > 100 µM | [26] > 100 µM | [51] > 100 µM | [27] > 100 µM | [52] 99.3 µM | [30] > 100 µM | [28] > 100 µM | [53] 79.6 µM

Cc1ccc(S(=O)(=O)N[C@@H](Cc2ccccc2)C(=O)CCl)cc1 [TPCK]
inactive: [1] 13.9 µM | [2] 17.8 µM | [31] 15.7 µM | [3] 16.5 µM | [32] 11.7 µM | [5] 3.7 µM | [33] 17.5 µM | [6] 17.7 µM | [7] 17.2 µM | [8] 13.9 µM | [34] 11.6 µM | [58] 4.66 µM | [10] 17.3 µM | [35] 13.6 µM | [36] 14.9 µM | [11] 1.82 µM | [37] 14.9 µM | [38] 9.75 µM | [12] 7.08 µM | [40] 13.4 µM | [13] 10.5 µM | [14] 14.2 µM | [41] 14.3 µM | [42] 14.3 µM | [54] 14.6 µM | [55] 15.2 µM | [16] 13.6 µM | [56] 15.5 µM | [43] 9.68 µM | [17] 19.9 µM | [44] 15.8 µM | [18] 4.93 µM | [45] 16.6 µM | [19] 13.7 µM | [20] 15.4 µM | [21] 1.38 µM | [22] 15.7 µM | [29] 18.9 µM | [23] 16.5 µM | [47] 18.6 µM | [48] 12.9 µM | [24] 12.2 µM | [49] 24.2 µM | [50] 12.7 µM | [25] 16.9 µM | [26] 14.3 µM | [51] 11.5 µM | [27] 17.2 µM | [52] 16.2 µM | [30] 12.3 µM | [28] 13.6 µM | [53] 14.1 µM
16 µM: [9]
